In US6235736A, “3-anilino-2-cycloalkenone derivatives” (Nikken Chemicals Co., Ltd., priority 1997, dated 2001):

Test system: Type IV PDE
Assay: PDE IV inhibitory activity (isozyme partially purified from rat neutrophils, 3H-cAMP substrate)
Type: biochemical
Conditions: rat neutrophil PDE IV, 30° C., 30 minutes, read-out: PDE IV inhibiting action IC50
Protocol: Type I, III, IV, and V PDE isozymes were prepared to study the PDE inhibitory activities of and selectivities with the compound of the invention [Trends Pharmacol Sci., 12, 19-27 (1991)]. Type I PDE was purchased from Sigma Corp. Type III, IV, and V PDE isozymes were partially purified from platelets (Type III and V) or neutrophils (Type IV) collected from rats. Each enzyme source was homogenized in a buffer (pH 6.5) containing 20 mM bisTris, 2 mM EDTA (i.e., ethlenediamine tetraacetate), 2-mercaptoethanol, 0.001 mM pepstatin and 0.01 mM leupeptin and was centrifuged at 30000×G for 30 minutes to obtain a supernatant, which was applied to an ion exchange column (Q-sepharose first flow, Pharmacia Corp.) and was eluted with 0 to 1M sodium acetate. Partially purified isozymes were identified by observing the inhibitory effects of conventional inhibitors.
Each PDE isozyme and the test compound dissolved in DMSO (i.e., dimethylsulfoxide) were added to 50 mM Tris--HCI buffer containing 5 mM magnesium chloride. ^3 H-cAMP (for type III and IV PDE) or ^3 H-cGMP (for type I and V PDE) were added as substrates and were reacted at 30° C. for 30 minutes. The reaction was terminated by placing the test tube in boiling water of 100° C. for 5 minutes. The nucleotides formed by PDE were broken down to ^3 H-adenosine or ^3 H-guanosine by 5'-nucleotidase. The substrate and reaction product were separated through an ion-exchange column (i.e., QAE sephadex, Pharmacia Corp.)
The eluted ^3 -H-nucleoside was measured for its radioactivity by a liquid scintillation counter. The inhibitory activities of the compound of the present invention are shown by the IC50 value (M). Further, the inhibitory activities of the test samples against type I, III, and V PDE are 1/10 or less than that against Type IV PDE.

IC50 [nM]	SMILES
48000	COc1ccc(N(C(C)=O)C2=CC(=O)CC2)cc1OC1CCCC1 [Compound No. 29, 3-(N-acetyl-3-cyclopentyloxy-4-methoxyanilino)-2-cyclopenten-1-one]
82	COc1ccc(NC2=C(C)C(=O)CCC2)cc1OC1Cc2ccccc2C1 [Compound No. 48, 3-[3-(2-indanyloxy)-4-methoxyanilino]-2-methyl-2-cyclohexen-1-one]
220	CCC1=C(Nc2ccc(OC)c(OC3CCCC3)c2)CCC1=O [Compound No. 31, 3-(3-cyclopentyloxy-4-methoxyanilino)-2-ethyl-2-cyclopenten-1-one]
220	COc1ccc(NC2=C(C)C(=O)CCC2)cc1OCCC1Cc2ccccc2C1 [Compound No. 53, 3-[3-[2-(2-indanyl)ethoxy]-4-methoxyanilino]-2-methyl-2-cyclohexen-1-one]
1200	COc1ccc(NC2=C(C)C(=O)CC2)cc1OC1CCOC1 (stereo not drawn) [Compound No. 37, 3-[4-methoxy-3-(3-2,3,4,5-tetrahydrofuranyloxy)anilino]-2-methyl-2-cyclopenten-1-one]
4900	COc1ccc(NC2=CC(=O)CC(C)(C)C2)cc1OC1CCCC1 [Compound No. 3, 3-(3-cycloientyloxy-4-methoxyanilino)-5,5-dimethyl-2-cyclohexen-1-one]
4000	COc1ccc(NC2=CC(=O)CC2)cc1OCCc1ccccc1 [Compound No. 11, 3-(4-methoxy-3-phenethyloxyanilino)-2-cyclopenten-1-one]
44000	COc1ccc(NC2=CC(=O)CCC2)cc1OCc1ccccc1 [Compound No. 20, 3-(3-benzyloxy-4-methoxyanilino)-2-cyclohexen-1-one]
7100	COc1ccc(NC2=CC(=O)CC2)cc1OCC1CC1 [Compound No. 15, 3-(3-cyclopropylmethoxy-4-methoxyanilino)-2-cyclopenten-1-one]
2200	COc1ccc(NC2=CC(=O)CC(C)C2)cc1OC1CCCC1 (stereo not drawn) [Compound No. 5, 3-(3-cycloientyloxy-4-methoxyanilino)-5-methyl-2-cyclohexen-1-one]
3900	COc1ccc(NC2=CC(=O)CC(c3ccccc3)C2)cc1OC1CCCC1 (stereo not drawn) [Compound No. 39, 3-(3-cyclopentyloxy-4-methoxyanilino)-5-phenyl-2-cyclohexen-1-one]
3500	COc1ccc(N(Cc2ccc3ccccc3c2)C2=C(C)C(=O)CC2)cc1OC1Cc2ccccc2C1 [Compound No. 74, 3-[3-(2-indanyloxy)-4-methoxy-N-(2-naphthylmethyl)anilino]-2-methyl-2-cyclopenten-1-one]
540	COc1ccc(NC2=C(Cl)C(=O)CC2)cc1OC1CCCC1 [Compound No. 6, 2-chloro-3-(3-cyclopentyloxy-4-methoxyanilino)-2-cyclopenten-1-one]
390	COc1ccc(NC2=C(C)C(=O)CC2)cc1OC1CCCC1 [Compound No. 4, 3-(3-cyclopentyloxy-4-methoxyanilino)-2-methyl-2-cyclopenten-1-one]
1300	COc1ccc(NC2=C(C)C(=O)CC2)cc1OCCc1cccc2ccccc12 [Compound No. 43, 3-[4-methoxy-3-[2-(1-naphthyl)ethoxy]anilino]-2-methyl-2-cyclopenten-1-one]
9600	COc1ccc(NC2=CC(=O)CC2)cc1OCCc1cccc2ccccc12 [compound 42, 3-[4-methoxy-3-[2-(1-naphthyl)ethoxy]anilino]-2-cyclopenten-1-one]

IC50 [nM]	SMILES
61000	COc1ccc(NC2=C(CN(C)C)C(=O)CC2)cc1OC1CCCC1 [Compound No. 24, 3-(3-cyclopentyloxy-4-methoxyanilino)-2-dimethylaminomethyl-2-cyclopenten-1-one]
1900	COc1ccc(NC2=CC(=O)CC2)cc1OCC1CCC1 [Compound No. 51, 3-(3-cyclobutylmethoxy-4-methoxyanilino)-2-cyclopenten-1-one]
8900	COc1ccc(NC2=CC(=O)CC2)cc1OC1CCOC1 (stereo not drawn) [Compound No. 36, 3-[4-methoxy-3-(3-2,3,4,5-tetrahydrofuranyloxy)anilino]-2-cyclopenten-1-one]
3100	COc1ccc(N(C)C2=C(C)C(=O)CC2)cc1OC1CCCC1 [Compound No. 70, 3-(3-cyclopentyloxy-4-methoxy-N-methylanilino)-2-methyl-2-cyclopenten-1-one]
8200	COc1ccc(N(Cc2ccccc2)C2=C(C)C(=O)CC2)cc1OC1CCCC1 [Compound No. 71, 3-(N-benzyl-3-cyclopentyloxy-4-methoxyanilino)-2-methyl-2-cyclopenten-1-one]
3000	COc1ccc(N(Cc2ccc3ccccc3n2)C2=C(C)C(=O)CC2)cc1OC1CCCC1 [Compound No. 72, 3-[3-cyclopentyloxy-4-methoxy-N-(2-quinolylemethyl)anilino]-2-methyl-2-cyclopenten-1-one]
17000	COc1ccc(NC2=C(CN3CCOCC3)C(=O)CC2)cc1OC1CCCC1 [Compound No. 25, 3-(3-cyclopentyloxy-4-methoxyanilino)-2-(4-morpholinomethyl)-2-cyclopenten-1-one]
4000	COc1ccc(NC2=CC(=O)CC2)cc1OCC1CCCC1 [Compound No. 40, 3-(3-cyclopentylmethoxy-4-methoxyanilino)-2-cyclopenten-1-one]
1800	COc1ccc(NC2=CC(=O)CC2)cc1OCCC1Cc2ccccc2C1 [Compound No. 34, 3-[3-[2-(2-indanyl)ethoxy]-4-methoxyanilino]-2-cyclopenten-1-one]
550	COc1ccc(NC2=C(C)C(=O)CC2)cc1OCC1CCC1 [Compound No. 52, 3-(3-cyclobutylmethoxy-4-methoxyanilino)-2-methyl-2-cyclopenten-1-one]
940	COc1ccc(NC2=C(C)C(=O)CC2)cc1OCC1CCCC1 [Compound No. 41, 3-(3-cyclopentylmethoxy-4-methoxyanilino)-2-methyl-2-cyclopenten-1-one]
1100	COc1ccc(NC2=C(Cc3ccccc3)C(=O)CCC2)cc1OC1CCCC1 [Compound No. 69, 2-benzyl-3-(3-cyclopentyloxy-4-methoxyanilino)-2-cyclohexen-1-one]
17000	COc1ccc(NC2=CC(=O)C(C)(C)CC2)cc1OC1CCCC1 [Compound No. 38, 3-(3-cyclopentyloxy-4-methoxyanilino)-6,6-dimethyl-2-cyclohexen-1-one]
730	COc1ccc(NC2=C(C)C(=O)CCC2)cc1OCC1CCCC1 [Compound No. 54, 3-(3-cyclopentylmethoxy-4-methoxyanilino)-2-methyl-2-cyclohexen-1-one]
260	COc1ccc(NC2=C(C)C(=O)CCC2)cc1O[C@@H]1C[C@H]2CC[C@@H]1C2 (racemic) [Compound No. 46, 3-[3-[(1RS,2RS,4SR)-bicyclo[2.2. 1]hept-2-yloxy]-4-methoxyanilino]-2-methyl-2-cyclohexen-1-one]

SMILES	IC50 [nM]
CCCCOc1cc(NC2=C(C)C(=O)CC2)ccc1OC [Compound No. 18, 3-(3-butoxy-4-methoxyanilino)-2-methyl-2-cyclopenten-1-one]	1700

Test system: TPA induced ear edema in mouse
Assay: TPA induced mouse ear edema assay
Type: in vivo, mouse (male ICR)
Conditions: 0.1 mg applied to right ear immediately after TPA; 6 hour
Protocol: Male ICR mice, 5 week old, were divided into groups of seven to eight. 2 μg of TPA (phorbor 12-ministate; Sigma Co.) in 20 μl acetone was applied to the inner and outer surface of right ear of each mouse to cause a reaction. 0.1 mg of compound was dissolved in 20 μl of a tetrahydrofuran-methanol mixture (mixture ratio 1:1) and the solution (20 μl) applied to the right ear immediately after TPA treatment. After 6 hour, the animals were sacrificed and right ear was punched out (.phi. […]) and weighed. The effect of comppund.was calculated as % inhibition as follows: [formula]

SMILES	% Inhibition of ear edema [%]
COc1ccc(NC2=C(C)C(=O)CCC2)cc1OC1Cc2ccccc2C1 [Compound No. 48, 3-[3-(2-indanyloxy)-4-methoxyanilino]-2-methyl-2-cyclohexen-1-one]	53.8
CCC1=C(Nc2ccc(OC)c(OC3CCCC3)c2)CCC1=O [Compound No. 31, 3-(3-cyclopentyloxy-4-methoxyanilino)-2-ethyl-2-cyclopenten-1-one]	73.4
COc1ccc(NC2=C(C)C(=O)CCC2)cc1OCCC1Cc2ccccc2C1 [Compound No. 53, 3-[3-[2-(2-indanyl)ethoxy]-4-methoxyanilino]-2-methyl-2-cyclohexen-1-one]	55.9
COc1ccc(NC2=C(C)C(=O)CC2)cc1OC1CCOC1 (stereo not drawn) [Compound No. 37, 3-[4-methoxy-3-(3-2,3,4,5-tetrahydrofuranyloxy)anilino]-2-methyl-2-cyclopenten-1-one]	51.8
